Test results as given in patent publication US4742059A, “Substituted quinoxalinediones and their methods of use” (American Cyanamide Company, priority 1987, dated 1988).
Like-named read-outs stand apart in the source and are kept apart here.

Columns and labels:
[1] = system: immunologically stimulated human basophils; experiment: Inhibition of histamine release from immunologically stimulated human basophils; assay type: cell-based; settings: 1 h; human basophils challenged with anti-IgE or antigen; 60 minutes at 37° C.; active if ED50 ≤48 μM; read-out: ED50 (concentration which causes a 50% inhibition of histamine release)
Protocol: The novel compounds of this invention have been tested by the procedure of Lichtenstein, L. M. and Osler, A. G., J. Exp. Med., 120, 507-530 (1964), which evaluated the ability of compounds to inhibit mediator (histamine) release from immunologically stimulated human basophils.
Dissolve 140.3 g of sodium chloride, 7.45 g of potassium chloride and 74.5 g of Trizma-Tris Pre-Set, Reagent Grade, pH 7.6, at 25° C. (Sigma Chemical Co.) in sufficient water to give a final volume of 2 liters.
(Sigma Chemical Co.) (30 mg/ml)
Made to 0.75M and 0.5M respectively, with calcium chloride dihydrate and magnesium chloride hexahydrate.
A 10 ml portion of 10× Tris Buffer and 1.0 ml of human albumin are diluted to 100 ml with water.
A 10 ml portion of 10× Tris Buffer, 1.0 ml of human albumin, 0.8 ml of calcium stock and 0.2 ml of magnesium stock are diluted to 100 ml with water.
Behring Diagnostics (Generally used at […] final concentration).
Strength 1:100 (w:v) allergenic extract, Hollister-Stier Labs. Generally this is diluted 1:1000 to 1:10,000 (considering the vial as stock).
Intradermal solutions of intramuscular preparations for hyposensitization, Hollister-Stier Labs. The final concentration used is on the order of 1 PNU/ml.
Eighty milliliters of blood is withdrawn from subjects with known histamine release to anti-IgE, ragweed antigen or other specific allergen, using four 20 ml heparinized tubes. This 80 ml of blood is mixed with 20 ml of saline containing 0.6 g of dextrose and 1.2 g of dextran. The blood is allowed to sediment at room temperature in two 50 ml polycarbonate centrifuge tubes until a sharp interface develops between the red cells and plasma (60-90 minutes). The plasma (top) layer from each tube is withdrawn by pipet and transferred to respective 50 ml polycarbonate tubes. The plasma is centrifuged for 8 minutes at 110×G at 4° C. The supernatant is carefully poured off as completely as possible and the cell button is resuspended in 2-3 ml of Tris-A buffer using a silconized Pasteur pipet. The resuspension is accomplished by drawing the liquid gently in an out of the pipet, with the tip below the liquid, until and even suspension of cells is obtained. Sufficient Tris-A buffer is then added to bring the volume in the tube to about 45 ml and the tube is centrifuged at 110×G for 8 minutes at 4° C. The supernatant is poured off and the cell button is resuspended and centrifuged as described above. The supernatant is poured off and the cell button suspended in 2-3 ml of Tris-ACM buffer to make the final volume sufficient to allow addition to the reaction tubes.
Reaction tubes containing anti-IgE or antigens, either alone or with test compound in a total volume of 0.2 ml are prepared and placed in a 37° C. bath. The cells are warmed to 37° C. and frequently swirled to ensure and even suspension, while 1.0 ml aliquots are added to each reaction tube. The tubes are then incubated for 60 minutes at 37° C., vortexing the tubes gently every 15 minutes to keep the cells evenly suspended. When the reaction is complete, the tubes are centrifuged at 4° C. for 10 minutes at 1500 rpm to sediment the cells. One ml aliquots of supernatant are transferred to 12 mm by 75 mm polyethylene tubes and 0.2 ml of 8% perchloric acid is added to each tube. Blanks and totals are included in each test. The blanks have cells and all reagents except antigent or anti-IgE. The totals contain 0.24 ml of 8% perchloric acid, one ml of cells and 0.2 ml of buffer. […]

Neutrophil Lipoxygenase = target: T1, Neutrophil Lipoxygenase (Cavia porcellus, UniProt A0A286X958); experiment: Inhibition of neutrophil lipoxygenase (release and biosynthesis of LTB4 and 5-HETE) in guinea pig neutrophils; assay type: cell-based; settings: 10 μg/ml compound, 100 μM arachidonic acid and 20 μM calcium ionophore (A23187), the lower the percentage, the more active
T1 construct: peritoneal neutrophils derived from guinea pigs; endogenous in cells; host or cells: guinea pig peritoneal neutrophils
T1 sequence (A0A286X958 1-674): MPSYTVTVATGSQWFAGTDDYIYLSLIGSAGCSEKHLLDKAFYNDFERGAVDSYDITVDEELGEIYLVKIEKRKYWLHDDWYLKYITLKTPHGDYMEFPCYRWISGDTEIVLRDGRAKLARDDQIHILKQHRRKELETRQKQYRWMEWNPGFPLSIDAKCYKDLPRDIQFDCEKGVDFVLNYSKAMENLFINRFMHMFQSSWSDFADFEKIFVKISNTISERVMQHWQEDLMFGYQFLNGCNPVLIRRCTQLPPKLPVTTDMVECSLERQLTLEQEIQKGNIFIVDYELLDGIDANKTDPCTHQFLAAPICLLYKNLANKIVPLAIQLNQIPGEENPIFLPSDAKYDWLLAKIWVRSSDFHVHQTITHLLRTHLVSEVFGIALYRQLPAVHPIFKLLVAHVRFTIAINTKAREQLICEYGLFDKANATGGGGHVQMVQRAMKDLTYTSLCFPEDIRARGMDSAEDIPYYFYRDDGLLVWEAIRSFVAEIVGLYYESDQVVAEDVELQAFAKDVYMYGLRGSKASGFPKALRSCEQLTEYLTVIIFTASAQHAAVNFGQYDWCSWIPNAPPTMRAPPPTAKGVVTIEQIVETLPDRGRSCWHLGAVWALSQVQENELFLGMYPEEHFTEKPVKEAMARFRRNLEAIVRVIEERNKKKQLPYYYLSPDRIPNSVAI
Protocol: The ability of these compounds to inhibit lipoxygenase activity in terms of the suppression of the release and biosynthesis of leukotriene B4 (LTB4) and 5-hydroxyeicosatetraenoic acid (5-HETE) was measured as follows.
In this assay 3×10^7 peritoneal neutrophils derived from guinea pigs were incubated at 37° C. in Dulbeccos buffer containing 50 mM tris buffer (pH 7.4). Five minutes before the addition of 100 μM arachidonic acid and 20 μM calcium ionophore (A23187), control vehicle or the test compounds were added to the neutrophils at a concentration of 10 μg/ml.
Three minutes after the addition of arachidonic acid and calcium ionophore the total lipid was partitioned into chloroform after adjusting the pH to 3 with citric acid and the addition of equal parts of methanol and chloroform.
The 5-HETE and LTB4 were resolved by HPLC using a 5M, 4×25 cm octadecyl silica column (IBM Instruments) with 70-80% methanol in water adjusted to pH 3.0 with acetic acid. As the mobile phase was pumped at 1.0 ml/minute, LTB4 and 5-HETE were detected by absorbance at 270 and 236 nm, respectively.
LTB4 and 5-HETE were quantitated by comparison with the control and the results were expressed as a percent of control.

[2] = 5-HETE, read-out: 5-HETE, % of Control
[3] = LTB4, read-out: LTB4, % of Control

Structure (SMILES) | IC50 [1] [µM] | remaining activity at 10 µg/mL (Neutrophil Lipoxygenase; [2]) [%] | remaining activity at 10 µg/mL (Neutrophil Lipoxygenase; [3]) [%]
CCOC(=O)N1CCN(C2=CC(=O)c3ncccc3C2=O)CC1 [4-(5,8-Dihydro-5,8-dioxo-6-quinolyl)-1-piperazinecarboxylic acid ethyl ester] | 17.4 | – | –
O=C1C=C(N2CCN(c3nc4ccccc4s3)CC2)C(=O)c2nccnc21 [6-[4-(2-Benzothiazoyl)-1-piperazinyl]-5,8-quinoxalinedione] | 1.2 | 67.2 | 8
O=C1C(N2CCN(c3nc4ccccc4o3)CC2)=CC(=O)c2ncccc21 [6-[4-(2-Benzoxazolyl)-1-piperazinyl]-5,8-quinolinedione] | – | 36.9 | 8
O=C1C=C(N2CCN(c3cccc(C(F)(F)F)c3)CC2)C(=O)c2nccnc21 [6-[4-[3-(Trifluoromethyl)phenyl]-1-piperazinyl]-5,8-quinoxalinedione] | 6.6 | 1.6 | 0
O=C1C=C(N2CCN(Cc3ccccc3)CC2)C(=O)c2nccnc21 [6[4-(Phenylmethyl)-1-piperazinyl]-5,8-quinoxalinedione] | – | 53.9 | 8
O=C1C=C(N2CCN(c3nc4ccccc4o3)CC2)C(=O)c2ncccc21 [7-[4-(2-Benzoxazolyl)-1-piperazinyl]-5,8-quinolinedione] | – | 22.7 | 35.8

Further lines, results first:

IC50 [1] [µM] | remaining activity at 10 µg/mL (Neutrophil Lipoxygenase; [2]) [%] | remaining activity at 10 µg/mL (Neutrophil Lipoxygenase; [3]) [%] | Structure (SMILES)
3.7 | – | – | CCOC(=O)N1CCN(C2=CC(=O)c3nccnc3C2=O)CC1 [4-(5,8-dihydro-5,8-dioxo-6-quinoxalinyl)-1-piperazine carboxylic acid ethyl ester]
12.1 | – | – | O=C1C(N2CCN(Cc3ccccc3)CC2)=CC(=O)c2ncccc21 [6-[4-(Phenylmethyl)-1-piperazinyl]-5,8-quinolinedione]
– | 11.9 | 5.7 | O=C1C(N2CCN(c3cccc(C(F)(F)F)c3)CC2)=CC(=O)c2ncccc21 [6-[4-[3-(Trifluromethyl)phenyl]-1-piperazinyl]-5,8-quinolinediones]
